Data published in ChEMBL document CHEMBL5365447, “Pronucleotides of 2',3'-Dideoxy-2',3'-Didehydrothymidine as Potent Anti-HIV Compounds” (J Med Chem, 2023).
Activity calls are given as the source filed them. No cut-off for these calls is given here.

Tests used:
[1] = Retention time of the compound by HPLC analysis; type: physicochemical
[2] = target: DNA polymerase beta (Homo sapiens) (UniProt P06746); test: Substrate activity at human DNA polymerase beta measured after 4 hrs by electrophoresis based primer extension assay
[3] = test system: Human immunodeficiency virus 1; test: Potency index, ratio of 3'-deoxy-2',3'-dehydrothymidine EC50 to compound EC50 for antiviral activity against HIV-1 HE infected in wild-type human CEM/0 cells; type: functional
[4] = Prodrug conversion in pH 7.3 phosphate buffer assessed as ((2S,5R)-5-(5-methyl-2,4-dioxo-3,4-dihydropyrimidin-1(2H)-yl)-2,5-dihydrofuran-2-yl)methyl tri-hydrogen diphosphate formation by measuring half life in presence of pig liver esterase by HPLC analysis; type: ADME
[5] = test system: Human immunodeficiency virus 1; test: Antiviral activity against HIV-1 HE infected in wild-type human CEM/0 cells assessed as inhibition of virus-induced cytopathic effect incubated for 4 to 5 days by light microscopic analysis; type: functional, organism-based; details: Human immunodeficiency virus 1, HE, CCRF-CEM
[6] = test system: Human immunodeficiency virus 2; test: Potency index, ratio of 3'-deoxy-2',3'-dehydrothymidine EC50 to compound EC50 for antiviral activity against HIV-2 ROD infected in thymidine kinase-deficient human CEM[…] cells; type: functional
[7] = test system: Human immunodeficiency virus 2; test: Antiviral activity against HIV-2 ROD infected in wild-type human CEM/0 cells assessed as inhibition of virus-induced cytopathic effect incubated for 4 to 5 days by light microscopic analysis; type: functional, organism-based; details: Human immunodeficiency virus 2, ROD, CCRF-CEM
[8] = Chemical stability of the compound in phosphate buffer assessed as half life at pH 7.3 by HPLC analysis; type: physicochemical
[9] = Prodrug conversion in human CEM/0 cell extract assessed as metabolite formation by measuring half life by HPLC analysis; type: ADME; details: ccrf-cem
[10] = target: T1, DNA polymerase subunit gamma-1 (Homo sapiens) (UniProt P54098); test: Substrate activity at human DNA polymerase gamma measured after 4 hrs by electrophoresis based primer extension assay
T1 sequence (whole entry): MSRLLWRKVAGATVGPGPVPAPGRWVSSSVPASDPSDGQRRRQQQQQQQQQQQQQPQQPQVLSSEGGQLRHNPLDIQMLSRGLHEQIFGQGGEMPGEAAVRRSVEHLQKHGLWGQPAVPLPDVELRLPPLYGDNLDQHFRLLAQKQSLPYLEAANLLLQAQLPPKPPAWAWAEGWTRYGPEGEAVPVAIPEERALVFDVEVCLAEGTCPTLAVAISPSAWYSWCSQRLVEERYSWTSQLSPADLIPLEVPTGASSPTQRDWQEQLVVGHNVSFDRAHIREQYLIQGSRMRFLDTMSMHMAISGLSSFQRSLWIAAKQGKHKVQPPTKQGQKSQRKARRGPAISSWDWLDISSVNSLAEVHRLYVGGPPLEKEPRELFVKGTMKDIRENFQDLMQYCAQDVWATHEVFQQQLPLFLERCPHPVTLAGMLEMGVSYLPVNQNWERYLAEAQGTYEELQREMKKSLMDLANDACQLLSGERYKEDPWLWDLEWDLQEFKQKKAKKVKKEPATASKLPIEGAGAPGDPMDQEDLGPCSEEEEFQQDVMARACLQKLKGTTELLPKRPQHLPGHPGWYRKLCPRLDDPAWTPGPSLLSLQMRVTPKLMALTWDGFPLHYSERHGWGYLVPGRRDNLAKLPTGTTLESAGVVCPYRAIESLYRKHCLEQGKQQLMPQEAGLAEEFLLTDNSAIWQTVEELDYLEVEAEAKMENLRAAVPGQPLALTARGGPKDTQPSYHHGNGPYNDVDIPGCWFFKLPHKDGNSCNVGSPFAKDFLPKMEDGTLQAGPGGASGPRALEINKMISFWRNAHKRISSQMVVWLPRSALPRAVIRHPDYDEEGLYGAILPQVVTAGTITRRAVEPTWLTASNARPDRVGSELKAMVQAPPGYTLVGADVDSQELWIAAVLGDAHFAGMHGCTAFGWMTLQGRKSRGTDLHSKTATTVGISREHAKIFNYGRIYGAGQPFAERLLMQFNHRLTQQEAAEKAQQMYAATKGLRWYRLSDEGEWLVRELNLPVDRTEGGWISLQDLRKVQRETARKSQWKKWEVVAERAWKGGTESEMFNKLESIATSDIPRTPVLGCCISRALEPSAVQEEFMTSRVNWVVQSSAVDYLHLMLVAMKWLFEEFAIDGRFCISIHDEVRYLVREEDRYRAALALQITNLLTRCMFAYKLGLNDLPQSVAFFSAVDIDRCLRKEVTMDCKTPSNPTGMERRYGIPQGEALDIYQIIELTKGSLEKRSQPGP

[11] = target: T2, DNA polymerase alpha catalytic subunit (Homo sapiens) (UniProt P09884); test: Substrate activity at human DNA polymerase alpha measured after 4 hrs by electrophoresis based primer extension assay
T2 sequence (whole entry): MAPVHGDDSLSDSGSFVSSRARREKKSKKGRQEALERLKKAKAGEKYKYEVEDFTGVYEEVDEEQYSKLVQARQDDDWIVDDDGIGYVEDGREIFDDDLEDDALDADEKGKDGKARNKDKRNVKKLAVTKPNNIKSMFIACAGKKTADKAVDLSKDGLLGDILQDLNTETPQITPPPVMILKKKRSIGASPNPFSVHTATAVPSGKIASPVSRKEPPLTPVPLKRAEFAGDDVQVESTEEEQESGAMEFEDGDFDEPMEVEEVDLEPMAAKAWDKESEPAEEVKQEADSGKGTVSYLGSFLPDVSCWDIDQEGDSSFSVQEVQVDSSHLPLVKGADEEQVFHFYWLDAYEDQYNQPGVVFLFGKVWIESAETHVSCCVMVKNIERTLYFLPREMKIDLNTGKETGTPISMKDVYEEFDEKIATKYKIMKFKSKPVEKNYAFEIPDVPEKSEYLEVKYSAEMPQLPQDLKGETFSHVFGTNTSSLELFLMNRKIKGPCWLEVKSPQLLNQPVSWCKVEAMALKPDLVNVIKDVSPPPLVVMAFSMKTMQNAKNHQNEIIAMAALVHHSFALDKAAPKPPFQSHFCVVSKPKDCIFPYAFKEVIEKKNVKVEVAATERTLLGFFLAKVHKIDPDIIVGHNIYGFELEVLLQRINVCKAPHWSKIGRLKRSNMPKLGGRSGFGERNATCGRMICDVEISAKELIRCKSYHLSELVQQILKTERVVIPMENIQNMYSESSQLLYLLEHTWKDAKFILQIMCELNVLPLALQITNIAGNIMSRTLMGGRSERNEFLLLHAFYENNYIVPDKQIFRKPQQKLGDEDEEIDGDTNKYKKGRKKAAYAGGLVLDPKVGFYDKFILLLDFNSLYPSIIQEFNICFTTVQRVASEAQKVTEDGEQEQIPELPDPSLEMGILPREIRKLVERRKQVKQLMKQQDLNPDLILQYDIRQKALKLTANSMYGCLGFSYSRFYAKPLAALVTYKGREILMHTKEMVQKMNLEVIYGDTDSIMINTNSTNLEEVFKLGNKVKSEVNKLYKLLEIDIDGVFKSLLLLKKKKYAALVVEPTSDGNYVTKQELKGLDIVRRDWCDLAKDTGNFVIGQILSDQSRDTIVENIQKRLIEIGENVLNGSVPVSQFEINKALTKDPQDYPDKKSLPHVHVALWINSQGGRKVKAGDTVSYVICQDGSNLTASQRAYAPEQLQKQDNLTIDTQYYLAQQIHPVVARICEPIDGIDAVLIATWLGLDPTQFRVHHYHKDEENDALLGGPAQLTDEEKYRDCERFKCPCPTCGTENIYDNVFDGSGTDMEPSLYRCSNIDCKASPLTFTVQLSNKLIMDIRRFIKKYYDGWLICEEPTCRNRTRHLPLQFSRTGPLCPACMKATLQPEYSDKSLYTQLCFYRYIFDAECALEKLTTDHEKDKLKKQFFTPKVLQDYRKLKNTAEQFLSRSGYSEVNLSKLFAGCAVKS

[12] = test system: Human immunodeficiency virus 2; test: Antiviral activity against HIV-2 ROD infected in thymidine kinase-deficient human CEM cells assessed as inhibition of virus-induced cytopathic effect incubated for 4 to 5 days by light microscopic analysis; type: functional, organism-based; details: Human immunodeficiency virus 2, ROD, CCRF-CEM
[13] = Selectivity index, ratio of CC50 for human CEM cells to EC50 for HIV-2 ROD infected in thymidine kinase-deficient human CEM cells; type: toxicity; details: read-out: Ratio CC50/EC50
[14] = Cytotoxicity against human CEM cells assessed as reduction in cell viability incubated for 4 to 5 days by light microscopic analysis; type: toxicity, cell-based; details: CEM cells (CCRF-CEM), time 4-5 day
[15] = test system: Human immunodeficiency virus 2; test: Potency index, ratio of 3'-deoxy-2',3'-dehydrothymidine EC50 to compound EC50 for antiviral activity against HIV-2 ROD infected in wild-type human CEM/0 cells; type: functional
[16] = test system: Human immunodeficiency virus; test: Substrate activity at HIV reverse transcriptase measured after 4 hrs by electrophoresis based primer extension assay
[17] = Chemical stability of the compound in phosphate buffer saline assessed as half life at pH 7.3 by HPLC analysis; type: physicochemical; details: phosphate buffered saline
[18] = Prodrug conversion in pH 7.3 phosphate buffer assessed as metabolite formation by measuring half life in presence of pig liver esterase by HPLC analysis; type: ADME; details: isolated protein

Row | Structure (SMILES) | Retention_time [1] [min] | Activity [2] | Ratio EC50 [3] | EC50 [5] [nM] | Ratio EC50 [6] | EC50 [7] [nM] | half-life [8] [days] | Drug metabolism [9] | Activity [10] | Activity [11] | EC50 [12] [nM] | selectivity ratio [13] | CC50 [14] [nM] | Ratio EC50 [15] | t1/2 [9] [days] | half-life [17] [days] | t1/2 [18] [days] | other results
1 | CCCCCCCCCCCCCCCCCCP(=O)(OCC(CC)CCCC)OP(=O)(O)OP(=O)(O)OC[C@@H]1C=C[C@H](n2cc(C)c(=O)[nH]c2=O)O1.N.N (stereo partly specified) | 17.1 | inactive | 4 | 90 | 10000 | 140 | > 41.7 | Metabolite_Notdetected | inactive | inactive | 240 | 175 | 42000 | 4 | – | – | – | Drug metabolism [4]: Metabolite_Notdetected
2 | CCCCCCCCCCCCCCCCCCOP(=O)(OC)OP(=O)(O)OP(=O)(O)OC[C@@H]1C=C[C@H](n2cc(C)c(=O)[nH]c2=O)O1.N.N (stereo partly specified) | 15.6 | inactive | 4 | 77 | 10000 | 25 | 32.9 | – | inactive | inactive | 15 | 2270 | 34000 | 4 | > 0.625 | – | – | Activity [16]: Active; t1/2 [4]: > 6.25 days
3 | CCCCCCCCCCCCOP(=O)(OCc1ccc(OC(=O)CCCCCCCCCCC)cc1)OP(=O)(O)OC[C@@H]1C=C[C@H](n2cc(C)c(=O)[nH]c2=O)O1.N (stereo partly specified) | 20.9 | – | – | 120 | – | 120 | – | – | – | – | 48 | 1010 | 48400 | – | 0.188 | 15.5 | 0.0279 | –
4 | CCCCOP(=O)(OCc1ccc(OC(=O)CCCC)cc1)OP(=O)(O)OC[C@@H]1C=C[C@H](n2cc(C)c(=O)[nH]c2=O)O1.N (stereo partly specified) | 12.5 | – | – | 440 | – | 170 | – | – | – | – | 19200 | > 5 | > 100000 | – | 0.015 | 5.46 | < 0.00042 | –
5 | CCCCCCCCCCCC(=O)Oc1ccc(COP(=O)(OCCCC)OP(=O)(O)OC[C@@H]2C=C[C@H](n3cc(C)c(=O)[nH]c3=O)O2)cc1.N (stereo partly specified) | 16.6 | – | – | 230 | – | 53 | – | Metabolite_Notdetected | – | – | 750 | 111 | 83100 | – | – | 11.6 | – | Drug metabolism [18]: Metabolite_Notdetected
6 | CCCCCCCCCCCCOP(=O)(OCc1ccc(OC(=O)CCCC)cc1)OP(=O)(O)OC[C@@H]1C=C[C@H](n2cc(C)c(=O)[nH]c2=O)O1.N (stereo partly specified) | 16.6 | – | – | 390 | – | 360 | – | – | – | – | 1390 | > 72 | > 100000 | – | 0.0458 | 11.9 | < 0.00042 | –
7 | CCCCCCCCCCCCP(=O)(OCc1ccc(OC(=O)CCCC)cc1)OP(=O)(O)OC[C@@H]1C=C[C@H](n2cc(C)c(=O)[nH]c2=O)O1.N (stereo partly specified) | 16.3 | – | – | 560 | – | 420 | – | Metabolite_Notdetected | – | – | 760 | 88 | 66700 | – | – | 29.2 | – | Drug metabolism [18]: Metabolite_Notdetected
8 | CCCCCCCCCCCCCCCCCCP(=O)(OCCCCCCCCCCCC)OP(=O)(O)OP(=O)(O)OC[C@@H]1C=C[C@H](n2cc(C)c(=O)[nH]c2=O)O1.N.N (stereo partly specified) | 18.9 | inactive | 4 | 130 | 10000 | 210 | 34.6 | Metabolite_Notdetected | inactive | inactive | 350 | 143 | 50000 | 4 | – | – | – | Drug metabolism [4]: Metabolite_Notdetected
